ChEMBL document CHEMBL4814007, “Structure-based discovery of SIAIS001 as an oral bioavailability ALK degrader constructed from Alectinib” (Eur J Med Chem, 2021)
Calls of active or inactive are those of the source. The calls are words filed in the database; no cut-off is given here.

Assays:
SR = experiment: Antiproliferative activity against ALK positive human SR cells; type: functional, cell-based
[1] = target: T1, Protein cereblon/ALK tyrosine kinase receptor (Homo sapiens, UniProt Q9UM73+Q96SW2); experiment: Protac activity at CRBN/ALK in human SR cells assessed as protein abundance at 500 nM by Western blot analysis (reference value: 1); type: cell-based
T1 sequence (Q96SW2 whole entry partner): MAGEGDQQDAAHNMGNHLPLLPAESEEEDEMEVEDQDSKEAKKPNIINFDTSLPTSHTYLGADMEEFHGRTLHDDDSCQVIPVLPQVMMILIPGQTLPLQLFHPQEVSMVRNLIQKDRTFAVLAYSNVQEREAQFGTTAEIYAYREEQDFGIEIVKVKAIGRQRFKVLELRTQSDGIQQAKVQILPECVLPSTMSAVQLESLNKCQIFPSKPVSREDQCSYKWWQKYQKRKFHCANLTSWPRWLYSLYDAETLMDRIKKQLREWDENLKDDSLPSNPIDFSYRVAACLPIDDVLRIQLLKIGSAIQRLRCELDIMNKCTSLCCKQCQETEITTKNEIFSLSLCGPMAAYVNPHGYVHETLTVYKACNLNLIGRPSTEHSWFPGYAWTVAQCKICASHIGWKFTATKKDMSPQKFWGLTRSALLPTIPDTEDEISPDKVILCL
T1 sequence (Q9UM73 19-1620 limits assumed): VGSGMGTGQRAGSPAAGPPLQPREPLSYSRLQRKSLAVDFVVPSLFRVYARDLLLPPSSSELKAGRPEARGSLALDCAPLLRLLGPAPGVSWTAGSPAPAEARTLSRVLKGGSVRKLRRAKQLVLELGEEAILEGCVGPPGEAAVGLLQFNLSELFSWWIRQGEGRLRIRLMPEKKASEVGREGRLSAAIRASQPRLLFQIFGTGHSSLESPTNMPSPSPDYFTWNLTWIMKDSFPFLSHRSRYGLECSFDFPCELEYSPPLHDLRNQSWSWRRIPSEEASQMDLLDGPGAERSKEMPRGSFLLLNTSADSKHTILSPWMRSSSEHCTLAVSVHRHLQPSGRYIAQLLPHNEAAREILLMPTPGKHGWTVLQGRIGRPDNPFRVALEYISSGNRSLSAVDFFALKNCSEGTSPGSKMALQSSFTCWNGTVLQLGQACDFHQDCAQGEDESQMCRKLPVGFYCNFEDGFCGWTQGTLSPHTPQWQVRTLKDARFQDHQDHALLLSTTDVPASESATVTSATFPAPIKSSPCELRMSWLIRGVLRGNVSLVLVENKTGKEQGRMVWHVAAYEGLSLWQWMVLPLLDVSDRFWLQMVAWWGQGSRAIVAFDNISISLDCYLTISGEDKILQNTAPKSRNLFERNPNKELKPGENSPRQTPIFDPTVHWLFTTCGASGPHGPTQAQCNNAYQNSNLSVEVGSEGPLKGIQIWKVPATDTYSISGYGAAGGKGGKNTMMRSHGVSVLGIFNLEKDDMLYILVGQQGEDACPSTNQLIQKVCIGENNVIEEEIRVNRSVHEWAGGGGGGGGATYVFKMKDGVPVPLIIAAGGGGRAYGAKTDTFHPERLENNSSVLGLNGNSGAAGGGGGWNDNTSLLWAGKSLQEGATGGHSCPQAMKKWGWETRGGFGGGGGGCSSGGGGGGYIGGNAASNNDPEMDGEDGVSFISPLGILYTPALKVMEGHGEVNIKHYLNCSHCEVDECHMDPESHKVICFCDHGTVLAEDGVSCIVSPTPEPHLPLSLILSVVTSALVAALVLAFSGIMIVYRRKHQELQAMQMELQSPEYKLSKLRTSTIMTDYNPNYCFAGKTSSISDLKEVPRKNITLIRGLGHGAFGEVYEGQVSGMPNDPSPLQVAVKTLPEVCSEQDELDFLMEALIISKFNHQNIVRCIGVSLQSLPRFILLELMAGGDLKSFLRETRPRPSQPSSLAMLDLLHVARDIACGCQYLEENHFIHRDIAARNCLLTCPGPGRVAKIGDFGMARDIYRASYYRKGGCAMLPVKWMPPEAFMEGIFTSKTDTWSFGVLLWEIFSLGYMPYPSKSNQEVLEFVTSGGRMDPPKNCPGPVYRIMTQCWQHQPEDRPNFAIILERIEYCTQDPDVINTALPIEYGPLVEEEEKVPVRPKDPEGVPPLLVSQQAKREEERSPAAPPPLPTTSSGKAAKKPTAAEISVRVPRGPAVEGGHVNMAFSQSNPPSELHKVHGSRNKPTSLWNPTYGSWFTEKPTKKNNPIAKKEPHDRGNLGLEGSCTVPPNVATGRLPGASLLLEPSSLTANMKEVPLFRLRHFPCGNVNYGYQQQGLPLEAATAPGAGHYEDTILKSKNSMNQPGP

[2] = target: T1, Protein cereblon/ALK tyrosine kinase receptor; experiment: Protac activity at CRBN/ALK in human SR cells assessed as protein abundance at 0.5 nM by Western blot analysis (reference value: 1); type: cell-based
[3] = target: T1, Protein cereblon/ALK tyrosine kinase receptor; experiment: Protac activity at CRBN/ALK in human SR cells assessed as protein abundance at 0.05 nM by Western blot analysis (reference value: 1); type: cell-based
[4] = target: T1, Protein cereblon/ALK tyrosine kinase receptor; experiment: Protac activity at CRBN/ALK in human SR cells assessed as protein abundance at 50 nM by Western blot analysis (reference value: 1); type: cell-based
[5] = target: T1, Protein cereblon/ALK tyrosine kinase receptor; experiment: Protac activity at CRBN/ALK in human SR cells assessed as increase in ALK degradation at 500 nM by Western blot analysis; type: cell-based
[6] = target: T1, Protein cereblon/ALK tyrosine kinase receptor; experiment: Protac activity at CRBN/ALK in human SR cells assessed as protein abundance at 5 nM by Western blot analysis (reference value: 1); type: cell-based
[7] = target: T2, von Hippel-Lindau disease tumor suppressor/ALK tyrosine kinase receptor (Homo sapiens) (UniProt Q9UM73+P40337); experiment: Protac activity at VHL/ALK in human SR cells assessed as protein abundance at 5 nM by Western blot analysis (reference value: 1); type: cell-based
T2 sequence (P40337 whole entry partner): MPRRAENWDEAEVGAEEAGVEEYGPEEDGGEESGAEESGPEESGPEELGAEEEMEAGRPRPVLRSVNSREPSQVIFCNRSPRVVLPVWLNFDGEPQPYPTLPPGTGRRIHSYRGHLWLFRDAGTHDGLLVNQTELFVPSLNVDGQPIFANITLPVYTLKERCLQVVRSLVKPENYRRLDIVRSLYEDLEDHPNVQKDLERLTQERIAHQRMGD
T2 sequence (Q9UM73 19-1620 limits assumed): as the sequence (Q9UM73 19-1620 limits assumed) above

[8] = target: T2, von Hippel-Lindau disease tumor suppressor/ALK tyrosine kinase receptor (Homo sapiens); experiment: Protac activity at VHL/ALK in human SR cells assessed as protein abundance at 500 nM by Western blot analysis (reference value: 1); type: cell-based
[9] = target: T2, von Hippel-Lindau disease tumor suppressor/ALK tyrosine kinase receptor (Homo sapiens); experiment: Protac activity at VHL1/ALK in human SR cells assessed as increase in ALK degradation at 500 nM by Western blot analysis; type: cell-based
[10] = target: T2, von Hippel-Lindau disease tumor suppressor/ALK tyrosine kinase receptor (Homo sapiens); experiment: Protac activity at VHL/ALK in human SR cells assessed as protein abundance at 0.05 nM by Western blot analysis (reference value: 1); type: cell-based
[11] = target: T2, von Hippel-Lindau disease tumor suppressor/ALK tyrosine kinase receptor (Homo sapiens); experiment: Protac activity at VHL/ALK in human SR cells assessed as protein abundance at 0.5 nM by Western blot analysis (reference value: 1); type: cell-based
[12] = target: T2, von Hippel-Lindau disease tumor suppressor/ALK tyrosine kinase receptor (Homo sapiens); experiment: Protac activity at VHL/ALK in human SR cells assessed as protein abundance at 50 nM by Western blot analysis (reference value: 1); type: cell-based

SMILES | IC50 (SR) | other results
CCc1cc2c(cc1N1CCC(N3CCN(C(=O)CCCCCNc4cccc5c4C(=O)N(C4CCC(=O)NC4=O)C5=O)CC3)CC1)C(C)(C)c1[nH]c3cc(C#N)ccc3c1C2=O (stereo not given) | 3.4 nM | 
COc1cc(N2CCC(N3CCN(C)CC3)CC2)ccc1Nc1ncc(Cl)c(Nc2ccccc2P(C)(C)=O)n1 [BRIGATINIB] | 1.9 nM | 
CCc1cc2c(cc1N1CCC(NC(=O)CCOCCOCCNc3cccc4c3C(=O)N(C3CCC(=O)NC3=O)C4=O)CC1)C(C)(C)c1[nH]c3cc(C#N)ccc3c1C2=O (stereo not given) | 12 nM | 
CCc1cc2c(cc1N1CCC(N3CCN(C(=O)CCCCCNc4cccc5c4CN(C4CCC(=O)NC4=O)C5=O)CC3)CC1)C(C)(C)c1[nH]c3cc(C#N)ccc3c1C2=O (stereo not given) | 4 nM | 
CCc1cc2c(cc1N1CCN(C(=O)CNc3cccc4c3C(=O)N(C3CCC(=O)NC3=O)C4=O)CC1)C(C)(C)c1[nH]c3cc(C#N)ccc3c1C2=O (stereo not given) | 3.2 nM | Activity [1]: 0.43; Activity [2]: 1.12; Activity [3]: 1.17; Activity [4]: 0.66; Activity [5]: Active; Activity [6]: 0.89
CCc1cc2c(cc1N1CCC(N3CCN(C(=O)CCCNc4cccc5c4CN(C4CCC(=O)NC4=O)C5=O)CC3)CC1)C(C)(C)c1[nH]c3cc(C#N)ccc3c1C2=O (stereo not given) | 3.3 nM | 
CCc1cc2c(cc1N1CCC(N3CCN(CCCCCCC#Cc4cccc5c4CN(C4CCC(=O)NC4=O)C5=O)CC3)CC1)C(C)(C)c1[nH]c3cc(C#N)ccc3c1C2=O (stereo not given) | 1.6 nM | 
CCc1cc2c(cc1N1CCC(NC(=O)CNc3cccc4c3C(=O)N(C3CCC(=O)NC3=O)C4=O)CC1)C(C)(C)c1[nH]c3cc(C#N)ccc3c1C2=O (stereo not given) | 13.5 nM | 
Cc1cc(Nc2ncc(Cl)c(Nc3ccccc3S(=O)(=O)C(C)C)n2)c(OC(C)C)cc1C1CCNCC1 [CERITINIB] | 2.2 nM | 
Cc1cc(Nc2ncc(Cl)c(Nc3ccccc3S(=O)(=O)C(C)C)n2)c(OC(C)C)cc1C1CCN(CCOCCOCCNC(=O)CNc2cccc3c2C(=O)N(C2CCC(=O)NC2=O)C3=O)CC1 (stereo not given) | 5.9 nM | 
CCc1cc2c(cc1N1CCC(N3CCN(C(=O)CCCCC(=O)NC(C(=O)N4C[C@H](O)C[C@H]4C(=O)NCc4ccc(-c5scnc5C)cc4)C(C)(C)C)CC3)CC1)C(C)(C)c1[nH]c3cc(C#N)ccc3c1C2=O (single isomer, unassigned) | 32.5 nM | Activity [7]: 1.04; Activity [8]: 0.43; Activity [9]: Active; Activity [10]: 0.96; Activity [11]: 1.14; Activity [12]: 0.93
CCc1cc2c(cc1N1CCC(N3CCN(CCCCCC#Cc4cccc5c4CN(C4CCC(=O)NC4=O)C5=O)CC3)CC1)C(C)(C)c1[nH]c3cc(C#N)ccc3c1C2=O (stereo not given) | 1.8 nM | Activity [1]: 0.69; Activity [2]: 1.09; Activity [3]: 1.08; Activity [4]: 0.67; Activity [6]: 0.76
CCc1cc2c(cc1N1CCC(N3CCN(C(=O)CCCCCCNc4cccc5c4CN(C4CCC(=O)NC4=O)C5=O)CC3)CC1)C(C)(C)c1[nH]c3cc(C#N)ccc3c1C2=O (stereo not given) | 9.2 nM | 
Cc1cc(Nc2ncc(Cl)c(Nc3ccccc3S(=O)(=O)C(C)C)n2)c(OC(C)C)cc1C1CCN(C(=O)NCCNC(=O)CNc2cccc3c2C(=O)N(C2CCC(=O)NC2=O)C3=O)CC1 (stereo not given) | 8.5 nM | 
CCc1cc2c(cc1N1CCC(N3CCN(CCCCCCCC#Cc4cccc5c4CN(C4CCC(=O)NC4=O)C5=O)CC3)CC1)C(C)(C)c1[nH]c3cc(C#N)ccc3c1C2=O (stereo not given) | 3.3 nM | 
CCc1cc2c(cc1N1CCC(N3CCN(CCCCC#Cc4cccc5c4CN(C4CCC(=O)NC4=O)C5=O)CC3)CC1)C(C)(C)c1[nH]c3cc(C#N)ccc3c1C2=O (stereo not given) | 1.2 nM | 
CCc1cc2c(cc1N1CCC(NC(=O)CCCNc3cccc4c3C(=O)N(C3CCC(=O)NC3=O)C4=O)CC1)C(C)(C)c1[nH]c3cc(C#N)ccc3c1C2=O (stereo not given) | 8.2 nM | 
CCc1cc2c(cc1N1CCC(N3CCN(C(=O)CCOCCOCCNc4cccc5c4C(=O)N(C4CCC(=O)NC4=O)C5=O)CC3)CC1)C(C)(C)c1[nH]c3cc(C#N)ccc3c1C2=O (stereo not given) | 2.5 nM | 
